Results as given in ChEMBL document CHEMBL3400148, “Structure-based discovery of small molecule hepsin and HGFA protease inhibitors: Evaluation of potency and selectivity derived from distinct binding pockets” (Bioorg Med Chem, 2015).
Active and inactive are the calls of the source. No cut-off for these calls is given here.

Assays:
[1] = target: T1, Suppressor of tumorigenicity 14 protein (Homo sapiens, UniProt Q9Y5Y6); assay: Inhibition of matripase (unknown origin) using Boc-QAR-AMC as substrate incubated for 30 mins prior to substrate addition by fluorescence assay
T1 sequence (Q9Y5Y6 whole entry): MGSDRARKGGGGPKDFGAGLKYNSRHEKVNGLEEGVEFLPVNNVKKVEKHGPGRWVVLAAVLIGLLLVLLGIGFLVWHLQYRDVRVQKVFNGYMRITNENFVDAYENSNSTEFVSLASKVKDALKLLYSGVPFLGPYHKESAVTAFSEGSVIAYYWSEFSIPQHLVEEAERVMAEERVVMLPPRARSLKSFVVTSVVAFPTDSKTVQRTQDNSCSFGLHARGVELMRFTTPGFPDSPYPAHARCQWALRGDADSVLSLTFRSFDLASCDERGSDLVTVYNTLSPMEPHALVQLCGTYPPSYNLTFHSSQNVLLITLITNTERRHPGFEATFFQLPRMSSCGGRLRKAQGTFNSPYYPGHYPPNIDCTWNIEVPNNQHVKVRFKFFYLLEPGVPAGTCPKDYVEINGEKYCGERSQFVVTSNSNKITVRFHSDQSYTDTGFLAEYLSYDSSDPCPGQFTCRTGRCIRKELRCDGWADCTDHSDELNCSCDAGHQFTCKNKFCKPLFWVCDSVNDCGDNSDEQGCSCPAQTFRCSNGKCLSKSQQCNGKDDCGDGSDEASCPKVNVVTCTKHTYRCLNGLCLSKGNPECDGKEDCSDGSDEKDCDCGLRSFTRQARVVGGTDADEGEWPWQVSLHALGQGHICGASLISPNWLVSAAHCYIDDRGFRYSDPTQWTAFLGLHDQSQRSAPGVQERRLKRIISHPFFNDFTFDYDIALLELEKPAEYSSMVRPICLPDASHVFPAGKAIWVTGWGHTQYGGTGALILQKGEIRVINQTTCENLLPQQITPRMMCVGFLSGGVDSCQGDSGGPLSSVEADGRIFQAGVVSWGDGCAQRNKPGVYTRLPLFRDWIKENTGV

[2] = target: T2, Hepatocyte growth factor activator serine protease (Homo sapiens, UniProt Q04756); assay: Inhibition of recombinant N-terminal His-tagged HGFA (unknown origin) expressed in baculovirus-infected Sf9 cells incubated for 30 mins prior to cromogenic substrate addition by spectrophotometry
T2 sequence (Q04756 whole entry): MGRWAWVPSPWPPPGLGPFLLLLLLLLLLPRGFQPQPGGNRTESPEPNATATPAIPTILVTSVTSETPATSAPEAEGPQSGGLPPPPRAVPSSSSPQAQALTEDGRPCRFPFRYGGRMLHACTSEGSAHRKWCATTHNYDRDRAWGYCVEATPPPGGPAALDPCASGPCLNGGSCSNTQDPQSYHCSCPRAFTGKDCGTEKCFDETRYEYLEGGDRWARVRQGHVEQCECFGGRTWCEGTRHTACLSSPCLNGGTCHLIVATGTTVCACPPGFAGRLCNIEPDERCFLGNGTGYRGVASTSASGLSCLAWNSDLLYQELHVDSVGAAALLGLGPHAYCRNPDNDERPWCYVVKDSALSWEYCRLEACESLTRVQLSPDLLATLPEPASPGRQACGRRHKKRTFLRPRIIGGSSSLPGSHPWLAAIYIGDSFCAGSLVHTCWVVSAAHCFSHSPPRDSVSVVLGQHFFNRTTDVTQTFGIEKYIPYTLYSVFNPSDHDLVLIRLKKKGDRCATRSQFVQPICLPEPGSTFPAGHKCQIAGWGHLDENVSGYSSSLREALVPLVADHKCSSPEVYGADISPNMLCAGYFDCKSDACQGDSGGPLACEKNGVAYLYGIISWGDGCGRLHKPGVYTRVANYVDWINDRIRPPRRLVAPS

Serine protease hepsin = Serine protease hepsin (Homo sapiens, UniProt P05981); assay: Inhibition of hepsin (unknown origin) using Boc-QAR-AMC as substrate after 30 mins prior to substrate addition by fluorescence assay
[3] = target: T2, Hepatocyte growth factor activator serine protease; assay: Inhibition of recombinant N-terminal His-tagged HGFA (unknown origin) expressed in baculovirus-infected Sf9 cells using Boc-QLR-AMC as substrate incubated for 30 mins prior to substrate addition by fluorescence assay
[4] = target: T2, Hepatocyte growth factor activator serine protease; assay: Inhibition of HGFA (unknown origin) after 40 mins by Eadie-Hofstee plot analysis
[5] = target: T3, Hepatocyte growth factor activator serine protease (Homo sapiens) (UniProt Q04756); assay: Inhibition of recombinant N-terminal His-tagged HGFA (unknown origin) expressed in baculovirus-infected Sf9 cells using Boc-QLR-AMC as substrate up to 20 uM incubated for 30 mins prior to substrate addition by fluorescence assay
T3 sequence (whole entry): T2 sequence (Q04756 whole entry)

Serine protease hepsin, sequence (P05981 1-162 limits assumed): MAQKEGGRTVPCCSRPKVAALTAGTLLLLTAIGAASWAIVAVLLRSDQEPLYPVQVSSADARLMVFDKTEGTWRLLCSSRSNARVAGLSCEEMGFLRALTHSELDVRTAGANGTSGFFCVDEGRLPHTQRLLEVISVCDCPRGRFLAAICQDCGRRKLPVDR
Serine protease hepsin, sequence (P05981 163-417 limits assumed): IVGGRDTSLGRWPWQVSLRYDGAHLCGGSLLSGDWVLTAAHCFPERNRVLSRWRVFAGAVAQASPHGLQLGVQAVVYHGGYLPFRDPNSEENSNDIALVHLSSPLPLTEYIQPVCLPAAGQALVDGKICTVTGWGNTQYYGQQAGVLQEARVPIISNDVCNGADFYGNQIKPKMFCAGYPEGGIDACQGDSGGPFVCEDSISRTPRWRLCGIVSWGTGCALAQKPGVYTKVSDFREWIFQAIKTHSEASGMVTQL

Ki [1] [nM] | IC50 [2] [nM] | Ki (Serine protease hepsin) [nM] | Structure (SMILES) | also measured
 | > 50000 |  | Cc1ccc(S(=O)(=O)Nc2ccc(NC(=N)N)cc2)cc1 | 
 | 6800 |  | N=C(N)Nc1ccc(C(=O)Oc2ccc(C(N)=O)cc2)cc1 | 
2500 |  | 670 | Cc1ccc(S(=O)(=O)N[C@@H](Cc2cccc(C(=N)N)c2)C(=O)N2CCN(C(=O)NCCc3ccccc3)CC2)cc1 | Ki [3]: > 50000 nM
 | > 50000 |  | N=C(N)Nc1ccc(NC(=O)c2ccccc2)cc1 | 
6700 |  | 2600 | N=C(N)c1cccc(C[C@H](NS(=O)(=O)c2ccc3ccccc3c2)C(=O)N2CCC[C@@H](NC(=O)OCc3ccccc3)C2)c1 | 
4600 |  |  | N=C(N)c1cccc(C[C@H](NS(=O)(=O)c2ccc3ccccc3c2)C(=O)N2CCN(C(=O)NCc3ccc(Br)cc3)CC2)c1 | 
 | 32000 |  | CN(C)C(=O)COC(=O)Cc1ccc(OC(=O)c2ccc(NC(=N)N)cc2)cc1 [CAMOSTAT] | 
7180 |  | 553 | CCc1cc(C(Nc2ccc(C(=N)N)cc2)C(=O)NS(=O)(=O)c2cn(C)cn2)cc2c(C)coc12 (racemic) | Ki [3]: 7100 nM
 |  | 1200 | CCCCCCNC(=O)N1CCN(C(=O)[C@H](Cc2cccc(C(=N)N)c2)NS(=O)(=O)c2ccc3ccccc3c2)CC1 | 
 |  | 7400 | CC(C)c1cc(C(C)C)c(S(=O)(=O)N[C@@H](Cc2cccc(C(=N)N)c2)C(=O)N2CCN(C(=O)C3CCNCC3)CC2)c(C(C)C)c1 | Ki [3]: 5500 nM
1200 |  |  | Cc1ccc(S(=O)(=O)N[C@@H](Cc2cccc(C(=N)N)c2)C(=O)N2CCC[C@H](NC(=O)OCc3ccccc3)C2)cc1 | 

Continued, compound first:

Structure (SMILES) | Ki [1] [nM] | IC50 [2] [nM] | Ki (Serine protease hepsin) [nM] | also measured
N=C(N)c1cccc(C[C@H](NS(=O)(=O)c2ccc3ccccc3c2)C(=O)N2CCN(C(=O)NCc3ccccc3)CC2)c1 | 2600 |  |  | 
N=C(N)Nc1ccc(C(=O)Oc2ccc([N+](=O)[O-])cc2)cc1 |  | 820 |  | 
N=C(N)Nc1ccc(C(=O)Nc2ccccc2)cc1 |  | > 50000 |  | 
N=C(N)Nc1ccc(C(=O)Oc2ccc([N+](=O)[O-])cc2Cl)cc1 |  | 300 |  | 
CCc1cc([C@@H](Nc2ccc(C(=N)N)cc2)C(=O)NS(=O)(=O)c2cn(C)cn2)cc2c(C)coc12 |  |  |  | Ki [4]: 590 nM
CC(C)c1cc(C(C)C)c(S(=O)(=O)N[C@@H](Cc2cccc(C(=N)N)c2)C(=O)N2CCN(C(=O)C3CCN(C(=N)N)CC3)CC2)c(C(C)C)c1 | 4.3 |  | 1580 | Ki [3]: 17000 nM
Cc1ccc(S(=O)(=O)N[C@@H](CCCCN)C(=O)CCl)cc1 |  |  |  | inhibition [5]: inactive
O=C(NC[C@H]1CN(c2ccc(N3CCOCC3=O)cc2)C(=O)O1)c1ccc(Cl)s1 [RIVAROXABAN] | 3350 |  |  | 
N=C(N)c1ccc2cc(OC(=O)c3ccc(N=C(N)N)cc3)ccc2c1 [NAFAMOSTAT] |  | 150 |  | 
[H]/N=C(/N)c1ccc(NCc2nc3cc(C(=O)N(CCC(=O)O)c4ccccn4)ccc3n2C)cc1 [DABIGATRAN] |  |  | 835 | 
COC(=O)c1ccc2cc(OC(=O)c3ccc(NC(=N)N)cc3)ccc2c1 |  | 600 |  | 
N=C(N)c1cccc(C[C@H](NS(=O)(=O)c2ccc3ccccc3c2)C(=O)N2CCN(C(=O)c3csc4ccccc34)CC2)c1 | 1500 |  | 3500 | 
COC(=O)c1ccc(OC(=O)c2ccc(NC(=N)N)cc2)cc1 |  | 1100 |  | 
N=C(N)Nc1ccc(C(=O)Oc2cccc([N+](=O)[O-])c2)cc1 |  | 3000 |  | 
Cc1ccc(S(=O)(=O)N[C@@H](Cc2cccc(C(=N)N)c2)C(=O)N2CCC(c3ccccc3)CC2)cc1 | 480 |  | 4700 | 
COC(=O)c1ccc2cc(NS(=O)(=O)c3ccc(NC(=N)N)cc3)ccc2c1 |  | > 50000 |  | 
